What was measured:
[1] = system: persistent epithelial defect (PED) of the cornea; assay: Phase 2 randomized, double-masked, vehicle-controlled study in subjects with persistent epithelial defects (PED) from ocular chemical and/or thermal injuries; type: in vivo, human; conditions: for subjects who achieved corneal epithelial recovery (re-epithelialized by Day 28 and remained so for at least 28 days): topical under bandage contact lens and to fornices, Day 1, Day 2, Day 14 if not re-epithelialized, n=12, full data set
From the text: A Phase 2, Randomized, Prospective, Double-Masked, Vehicle-Controlled Study to Assess the Efficacy and Safety of Lufepirsen® (Lufepirsen) Applied Topically in Subjects with Persistent Epithelial Defects (PED) Resulting from Ocular Chemical and/or Thermal Injuries.
This Example describes the use of an exemplary connexin modulator (lufepirsen) in a randomized, prospective, vehicle-controlled, double-masked, human clinical trial to treat non-healing ocular surface defects. Lufepirsen is a connexin 43 antisense oligonucleotide according to SEQ ID NO:1. The vehicle comparator in the trial was Pluronic F-127.
Study Subjects: A total of 35 subjects were enrolled in this clinical trial. All eligible subjects presented with a non-infected, persistent epithelial defect (PED) of the cornea as a result of a chemical and/or thermal ocular injury, that was refractory to current standard of care for at least 14 days. Of the 35 subjects, 24 subjects received topical ocular dose administrations of […] and 11 subjects received Vehicle. […]
• Corneal epithelial recovery, defined as a cornea that re-epithelializes by Day 28 of treatment and remains re-epithelialized for at least 28 days after initial re-epithelialization was first recorded, as assessed by the Investigator. Secondary Endpoints: • The time to epithelialization defined as the time from randomization to the time of initial re-epithelialization. • Improvement of visual acuity from baseline over the course of the study period. • Number of […] treatment doses required for recovery of the corneal epithelium. Exploratory Endpoints: • Change from baseline in PED area defined as the largest diameter times the largest one perpendicular to it, within the confines of the epithelial defect. • Corneal re-epithelialization, defined as a cornea that has re-epithelialized by Day 28 of treatment. • Change from baseline in ocular symptoms. • Primary, secondary, and exploratory endpoints were also assessed (as applicable) for the open-label section of the study. • Descriptive comparison of intrasubject corneal re-epithelization to fellow eye in subjects with bilateral injuries Safety: • Incidence of Treatment Emergent Adverse Events.
Treatment Dosing: The study comprised of a 28-day Treatment Period, followed by a Post-treatment Follow-up Period of at least 28 days to evaluate both safety and re-epithelization status (durability), both of which were double-masked (i.e., double-blinded). Once determined to be eligible, subjects were randomized to receive either […] 0.06% or […] 0.006% or Vehicle in a 1:1:1 ratio respectively. Investigational product was applied under a bandage contact lens (BCL) and to the fornices of the study eye at the following time points during the Treatment Period: • Day 1 • Day 2 • Day 14 (if the cornea has not re-epithelialized)
The eye was then covered with a double eye pad and taped shut for approximately 8 hours.
Three treatment arms were evaluated in the study. Randomization was in a 1:1:1 ratio: • GROUP A—[…] 0.06% • GROUP B—[…] 0.006% • GROUP C—Vehicle
There was a single application of investigational product on Day 1 and Day 2. A potential additional application of investigational product was scheduled at Day 14 if re-epithelialization has not occurred.
The first investigational product application occurred following randomization on Day 1 of the Treatment Period, with the second application administered on Day 2. […]

[2] = target: gap junctions (Homo sapiens); conditions: at 17 μM; cited from earlier work
Cx43 hemichannels = Cx43 hemichannels (Homo sapiens, UniProt P17302); conditions: cited from earlier work
gap junctions = conditions: in some circumstances; cited from earlier work
[3] = system: ATP release in glioma cells; conditions: read-out: IC50 (half maximal inhibitory concentration) for the inhibition of ATP release; cited from earlier work

Sequence of Cx43 hemichannels (P17302 2-382 limits assumed): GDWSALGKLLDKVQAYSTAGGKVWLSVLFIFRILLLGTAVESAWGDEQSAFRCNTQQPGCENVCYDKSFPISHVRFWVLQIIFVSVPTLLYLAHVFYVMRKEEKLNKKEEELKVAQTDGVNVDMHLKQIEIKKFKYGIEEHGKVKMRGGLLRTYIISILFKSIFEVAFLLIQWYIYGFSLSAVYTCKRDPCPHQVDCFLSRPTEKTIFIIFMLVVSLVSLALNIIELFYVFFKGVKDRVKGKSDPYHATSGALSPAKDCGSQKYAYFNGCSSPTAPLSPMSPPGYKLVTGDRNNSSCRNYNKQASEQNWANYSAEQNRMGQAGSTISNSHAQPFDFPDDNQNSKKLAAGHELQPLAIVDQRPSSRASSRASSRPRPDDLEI
Sequence of gap junctions (Homo sapiens) (P08034 whole entry): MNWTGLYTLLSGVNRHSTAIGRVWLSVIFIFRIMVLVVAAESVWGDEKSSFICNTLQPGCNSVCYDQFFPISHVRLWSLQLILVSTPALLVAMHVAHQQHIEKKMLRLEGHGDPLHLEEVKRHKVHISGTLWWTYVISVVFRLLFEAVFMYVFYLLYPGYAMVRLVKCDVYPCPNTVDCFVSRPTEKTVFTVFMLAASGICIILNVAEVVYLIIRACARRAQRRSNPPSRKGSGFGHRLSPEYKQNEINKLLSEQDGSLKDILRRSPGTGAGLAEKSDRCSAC

## 5′-GTAATTGCGGCAAGAAGAATTGTTTCTGTC-3′ (antisense GTAATTGCGGCAAGAAGAATTGTTTCTGTC; listed as DNA, chemistry not given here)
[1]; LUFEPIRSEN 0.006%
  subjects who achieved corneal epithelial recovery (re-epithelialized by Day 28 and remained so for at least 28 days): 66.7%
[1]; LUFEPIRSEN 0.06%
  subjects who achieved corneal epithelial recovery (re-epithelialized by Day 28 and remained so for at least 28 days): 66.7%
[1]; TEAEs across all 3 treatment groups mild to moderate, unlikely/unrelated to study drug, a SAE not related to study drug
  tolerability of treatment (TEAEs): well tolerated
[1]; both LUFEPIRSEN doses pooled (n=24) vs VEH (n=11)
  times more likely to heal than the vehicle group: 2.44 times
[1]; both LUFEPIRSEN doses pooled (n=24) vs VEH (n=11), Fisher's exact test p=0.065
  comparative improvement in corneal epithelial recovery over the VEH group: 39.4%

## GHGDPLHLEEVKC [^32Gap24, peptide that mimics a 13 amino acid long stretch of the L2 region of Cx32]
[2]
  effect on gap junctions: without affecting gap junctions

## VDCFLSRPTEKT [Peptide5]
Cx43 hemichannels
  concentration at which Cx43 hemichannels are inhibited: 5 to 10 µM
Gap junctions
  concentration at which incubation also leads to inhibition of gap junctions: ≥ 100 µM

## YGRKKRRQRRRKQIEIKKFK [TAT-^43Gap19]
[3]
  IC50: 7 µM
